These results are taken from ChEMBL document CHEMBL3808275, “Design, synthesis and SARs of novel salicylanilides as potent inhibitors of RANKL-induced osteoclastogenesis and bone resorption” (Eur J Med Chem, 2016).

The structures appear in SMILES notation. The source made the active and inactive calls. The rule behind the calls is not given here.

Broadly, the CC50 is the concentration giving 50% cytotoxicity. By IC50 is commonly meant the concentration that gives 50% inhibition.

A short description of data set [1]: Cytotoxicity against mouse RAW264.7 cells assessed as survival rate at 2.5 uM after 24 hrs by MTT assay. Format: cell-based. Particulars: read-out: Survival.
Data set [2] can be described thus: Cytotoxicity against mouse RAW264.7 cells assessed as reduction in cell viability after 24 hrs by MTT assay. It counts as cell-based. Background: Tetrazolium assays rely on reduction of a dye to a coloured formazan, in cell work by metabolically active cells.
For data set [3], the system named is RAW264.7. Description: Cytotoxicity against mouse RAW264.7 cells assessed as reduction in cell viability at 5 uM after 24 hrs by MTT assay. Particulars: raw264.7, 24 h. Format: cell-based.
For data set [4], the system named is RAW264.7. The data set is described as follows: Inhibition of RANKL-induced osteoclast differentiation in mouse RAW264.7 cells assessed as reduction in TRAP-positive multinucleated cells level incubated with compound in presence of RANKL for 4 days by TRAP staining based light microscopic analysis relative to RANKL alone. It counts as functional, cell-based. Particulars: RAW264.7, 96 h.

Data set [5] deals with RAW264.7. The data set is described as follows: Inhibition of RANKL-induced osteoclast differentiation in mouse RAW264.7 cells assessed as TRAP-positive multinucleated cells level at 2.5 uM incubated with compound in presence of RANKL for 4 days by TRAP staining based light microscopic analysis relative to RANKL alone. It counts as functional. Details: scale not given: the % may be the effect or the level left.

Data set [6] concerns the target T1, Nuclear factor of activated T-cells, cytoplasmic 1 (Mus musculus) (UniProt O88942).
T1 sequence (whole entry): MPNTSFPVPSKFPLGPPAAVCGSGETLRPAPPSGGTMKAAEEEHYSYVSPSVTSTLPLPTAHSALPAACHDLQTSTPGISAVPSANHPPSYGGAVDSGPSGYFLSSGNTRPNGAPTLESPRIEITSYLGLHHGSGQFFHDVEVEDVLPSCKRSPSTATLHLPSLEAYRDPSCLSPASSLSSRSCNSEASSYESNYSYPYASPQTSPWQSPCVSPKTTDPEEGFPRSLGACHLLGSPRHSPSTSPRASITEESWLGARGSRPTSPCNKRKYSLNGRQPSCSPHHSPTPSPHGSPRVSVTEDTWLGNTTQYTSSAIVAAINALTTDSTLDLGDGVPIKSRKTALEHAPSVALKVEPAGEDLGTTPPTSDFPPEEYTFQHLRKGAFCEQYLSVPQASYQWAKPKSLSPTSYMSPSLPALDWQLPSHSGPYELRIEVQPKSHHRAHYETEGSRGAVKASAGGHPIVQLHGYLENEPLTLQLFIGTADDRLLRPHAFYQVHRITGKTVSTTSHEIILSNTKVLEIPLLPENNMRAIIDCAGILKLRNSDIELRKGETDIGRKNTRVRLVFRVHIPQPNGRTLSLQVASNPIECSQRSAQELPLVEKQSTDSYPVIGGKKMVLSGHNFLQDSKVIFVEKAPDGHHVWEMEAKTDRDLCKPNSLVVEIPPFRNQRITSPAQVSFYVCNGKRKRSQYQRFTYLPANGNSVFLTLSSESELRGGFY
The data set is described as follows: Inhibition of RANKL-induced NFATc1 translocation in mouse RAW264.7 cells at 1.5 uM incubated with compound in presence of RANKL for 24 hrs by propidium iodide staining based Leica fluorescent microscopic analysis. Format: cell-based.

Data set [7] addresses T1, Nuclear factor of activated T-cells, cytoplasmic 1 (Mus musculus). Description: Inhibition of RANKL-induced NFATc1 translocation in mouse RAW264.7 cells at 2 uM incubated with compound in presence of RANKL for 24 hrs by propidium iodide staining based Leica fluorescent microscopic analysis. Format: cell-based.
For data set [8], the system named is RAW264.7. Description: Inhibition of RANKL-induced osteoclastic bone resorption in mouse RAW264.7 cells assessed as bone resorption area at 1.5 uM incubated with compound in presence of RANKL for 4 days by pit formation assay. It counts as functional. Details: scale not given: the % may be the effect or the level left.
The test system of data set [9] is RAW264.7. Description: Inhibition of RANKL-induced osteoclastic bone resorption in mouse RAW264.7 cells assessed as bone resorption area at 2 uM incubated with compound in presence of RANKL for 4 days by pit formation assay. It counts as functional. Details: scale not given: the % may be the effect or the level left.
In data set [10] the test system is RAW264.7. The data set is described as follows: Inhibition of RANKL-induced NFATc1 protein expression in mouse RAW264.7 cells at 1.5 and 2 uM incubated with compound in presence of RANKL for 24 hrs by propidium iodide staining based Leica fluorescent microscopic analysis. It counts as functional, cell-based.
Data set [11] concerns RAW264.7. Description: Inhibition of RANKL-induced osteoclastic bone resorption in mouse RAW264.7 cells assessed as bone resorption area at 1 uM incubated with compound in presence of RANKL for 4 days by pit formation assay. It counts as functional. Details: scale not given: the % may be the effect or the level left.

Turning to `O=c1oc2ccc(Cl)cc2c(=O)n1-c1ccc(I)cc1F`, the viability at 24 h, 2.5 µM in [1] turned out to be 95.5%. For the same molecule, in [2], the half-maximal cytotoxic concentration (CC50) at 24 h was 6.9 µM. In addition, the Activity entry in the data set with RAW264.7 [3] was “Toxic”; with RAW264.7 [5], 19.1%. In addition, in the data set on RAW264.7 [4], the IC50 worked out at 2.05 µM.
On to `O=C(Nc1ccc(I)cc1F)c1cc(F)ccc1O`, for which the viability at 24 h, 2.5 µM in data set [1] came out at 100%. For the same molecule, the CC50 at 24 h in [2] was 7.4 µM. Moreover, the Activity result in the data set with RAW264.7 [3] is “Toxic”; with RAW264.7 [5], 0.1%; with RAW264.7 [8], 63.98%; in the data set with RAW264.7 [9] it was 23.22%. The IC50 with RAW264.7 [4] stood at 1.57 µM. Further, the inhibition result (in [6]; in [7]; in the data set on RAW264.7 [10]) was “Active” each time.
With `O=C(Nc1ccc(I)cc1F)c1cc(Br)ccc1O`, in data set [1], the viability at 24 h, 2.5 µM is 99.6%. For the same molecule, in data set [2], the CC50 at 24 h was determined as 6.4 µM. Besides, the Activity result with RAW264.7 [3] is “Toxic”; in the data set with RAW264.7 [5], 16%. Further, the IC50 with RAW264.7 [4] was determined as 1.93 µM.
The corresponding values for `O=C(Nc1ccc(Cl)cc1F)c1cc(Cl)ccc1O` are 109%, 8 µM, “Toxic”, 15.8% and 2.12 µM.
On the same counts, the results for `O=C(Nc1ccc(Br)cc1F)c1cc(F)ccc1O` are 102%, 7.9 µM, “Toxic”, 8.7% and 1.86 µM.
For the molecule `O=c1oc2ccc(F)cc2c(=O)n1-c1ccc(I)cc1F`, in data set [1], the viability at 24 h, 2.5 µM worked out at 102%. The cytotoxic concentration (CC50) at 24 h in data set [2] came out at 6 µM. The Activity result was “Toxic” in the data set with RAW264.7 [3]; 13.9% in the data set with RAW264.7 [5]; 42.55% in the data set on RAW264.7 [8]; 16.93% with RAW264.7 [9]; 73.07% in the data set with RAW264.7 [11]. Further, the IC50 in the data set with RAW264.7 [4] was found to be 2.05 µM. The inhibition entry (in data set [6]; in data set [7]; in the data set with RAW264.7 [10]) was “Active” each time.
With `O=C(Nc1ccc(Br)cc1F)c1cc(Cl)ccc1O`, the viability at 24 h, 2.5 µM in data set [1] worked out at 106%. Also, the CC50 at 24 h in [2] turned out to be 7.8 µM. For the same molecule, the Activity entry with RAW264.7 [3] is “Toxic”; with RAW264.7 [5] it was 23.3%. Besides, the IC50 in the data set on RAW264.7 [4] stood at 2.14 µM.
In the case of `O=C1c2cc(Br)ccc2Oc2cc([N+](=O)[O-])ccc2N1c1ccc(Br)cc1F`, in data set [1], the viability at 24 h, 2.5 µM amounted to 88.7%. Also, the CC50 at 24 h in [2] was greater than 40 µM. The Activity result in the data set with RAW264.7 [3] was “Toxic”; in the data set with RAW264.7 [5], 84.2%.
On the same counts, the results for `O=C1c2cc(I)ccc2Oc2cc([N+](=O)[O-])ccc2N1c1ccc(I)cc1F` are 98.9%, greater than 40 µM, “Toxic” and 55.7%.
On to `O=C1c2cc(Br)ccc2Oc2cc([N+](=O)[O-])ccc2N1c1ccc(F)cc1F`, for which the viability at 24 h, 2.5 µM in data set [1] is 94%. Moreover, the CC50 at 24 h in [2] is greater than 40 µM. The Activity result in the data set with RAW264.7 [3] was “Toxic”; with RAW264.7 [5] it was 90.1%.
As for `O=C1c2cc(I)ccc2Oc2cc([N+](=O)[O-])ccc2N1c1ccc(Br)cc1F`, the viability at 24 h, 2.5 µM in [1] came out at 93.4%. In data set [2], the cytotoxic concentration (CC50) at 24 h is greater than 40 µM. The Activity entry in the data set on RAW264.7 [3] is reported as “Toxic”; in the data set on RAW264.7 [5], 84.8%.
On the same counts, the results for `O=C1c2cc(I)ccc2Oc2cc([N+](=O)[O-])ccc2N1c1ccc(F)cc1F` are 98.2%, greater than 40 µM, “Toxic” and 85.4%.
On the same counts, the results for `O=C(O)c1cc(Cl)ccc1O` [5-CHLOROSALICYLIC ACID] are 113%, greater than 40 µM, “Toxic” and 96.6%.
On the same counts, the results for `O=C1c2ccccc2Oc2cc([N+](=O)[O-])ccc2N1c1ccc(I)cc1F` are 87.2%, greater than 40 µM, “Toxic” and 88.6%.
As for `O=C(Nc1ccc(I)cc1F)c1cc(Cl)ccc1O`, the viability at 24 h, 2.5 µM in data set [1] worked out at 108%. For the same molecule, the CC50 at 24 h in data set [2] turned out to be 7.6 µM. For the same molecule, the Activity entry is given as “Toxic” in the data set on RAW264.7 [3] and 2.9% in the data set on RAW264.7 [5]. For the same molecule, the IC50 with RAW264.7 [4] turned out to be 1.84 µM.
On to `O=c1oc2ccc(I)cc2c(=O)n1-c1ccc(Br)cc1F`, for which the viability at 24 h, 2.5 µM in [1] is 109%. Moreover, in data set [2], the CC50 at 24 h stood at 8.3 µM. Moreover, the Activity entry in the data set on RAW264.7 [3] was “Toxic”; in the data set on RAW264.7 [5] it was 58.2%.
For the molecule `O=C1c2cc(F)ccc2Oc2cc([N+](=O)[O-])ccc2N1c1ccc(I)cc1F`, the viability at 24 h, 2.5 µM in data set [1] was found to be 95.3%. Moreover, in data set [2], the CC50 at 24 h is greater than 40 µM. Further, the Activity entry was “Toxic” in the data set on RAW264.7 [3] and 85.3% in the data set on RAW264.7 [5].
The corresponding values for `O=c1oc2ccc(F)cc2c(=O)n1-c1ccc(Cl)cc1F` are 107%, 7.9 µM, “Toxic” and 29.8%.
In the case of `O=c1oc2ccc(Cl)cc2c(=O)n1-c1ccc(Br)cc1F`, the viability at 24 h, 2.5 µM in data set [1] was 114%. Besides, the 50% cytotoxic concentration (CC50) at 24 h in data set [2] worked out at 8.1 µM. For the same molecule, the Activity result in the data set on RAW264.7 [3] is “Toxic”; in the data set on RAW264.7 [5], 45.5%.
On the same counts, the results for `O=C(Nc1ccc(F)cc1F)c1cc(I)ccc1O` are 103%, 13.7 µM, “Toxic” and 80.5%.
On the same counts, the results for `O=c1oc2ccc(F)cc2c(=O)n1-c1ccc(Br)cc1F` are 103%, 7.2 µM, “Toxic” and 25.5%.
The corresponding values for `O=C1c2cc(F)ccc2Oc2cc([N+](=O)[O-])ccc2N1c1ccc(F)cc1F` are 90.1%, greater than 40 µM, “Toxic” and 92.4%.
In the case of `O=c1oc2ccccc2c(=O)n1-c1ccc(Cl)cc1F`, the viability at 24 h, 2.5 µM in data set [1] was found to be 92.5%. Moreover, in data set [2], the CC50 at 24 h turned out to be 24.4 µM. Moreover, the Activity result in the data set with RAW264.7 [3] is on record as “Toxic”; with RAW264.7 [5], 71.1%.
On the same counts, the results for `O=C(Nc1ccc(Cl)cc1F)c1cc(Br)ccc1O` are 103%, 9.2 µM, “Toxic” and 39.6%.
`O=C1c2ccccc2Oc2cc([N+](=O)[O-])ccc2N1c1ccc(Cl)cc1F`: in [1], the viability at 24 h, 2.5 µM came out at 103%. For the same molecule, the CC50 at 24 h in data set [2] was greater than 40 µM. Further, the Activity result with RAW264.7 [3] was “Toxic”; in the data set with RAW264.7 [5], 97.1%.
